Data published in ChEMBL document CHEMBL4825751, “Design, synthesis, and antitumor activity evaluation of steroidal oximes” (Bioorg Med Chem, 2021).
Active and inactive are the calls of the source. No cut-off for these calls is given here.

Experiments:
[1] = tested on: PC-3; assay: Cytotoxicity against human PC-3 cells assessed as cell viability measured after 72 hrs by MTS assay; assay type: functional, cell-based; settings: PC-3, 72 h
[2] = tested on: HepG2; assay: Anticancer activity against human HepG2 cells assessed as inhibition of cell proliferation measured after 72 hrs by MTT assay; assay type: functional, cell-based; settings: HepG2, 72 h
[3] = tested on: PC-3; assay: Anticancer activity against human PC-3 cells assessed as inhibition of cell proliferation measured after 72 hrs by MTT assay; assay type: functional, cell-based; settings: PC-3, 72 h
[4] = tested on: WiDr; assay: Anticancer activity against human WiDr cells assessed as inhibition of cell proliferation measured after 72 hrs by MTT assay; assay type: functional, cell-based
[5] = tested on: NCI-H1299; assay: Anticancer activity against human H1299 cells assessed as inhibition of cell proliferation measured after 72 hrs by MTT assay; assay type: functional, cell-based; settings: NCI-H1299, 72 h
[6] = tested on: CCD-841CoN; assay: Anticancer activity against human CCD841 CoN cells assessed as inhibition of cell proliferation measured after 72 hrs by MTT assay; assay type: cell-based
[7] = tested on: PC-3; assay: Induction of cell cycle arrest in human PC-3 cells assessed as pre-G0/G1 phase at 40 uM measured after 72 hrs by propidium iodide based assay relative to control; assay type: functional
[8] = tested on: WiDr; assay: Induction of oxidative stress in human WiDr cells assessed as increase in superoxide anion level at IC50 concentration incubated for 24 hrs by DHE based red fluorescence assay; assay type: functional, cell-based
[9] = tested on: PC-3; assay: Induction of apoptosis in human PC-3 cells assessed as apoptotic cells at IC50 concentration measured after 72 hrs by annexin-V and propidium iodide staining based flow cytometry analysis; assay type: functional
[10] = tested on: PC-3; assay: Induction of oxidative stress in human PC-3 cells assessed as increase in peroxide level at 15 uM incubated for 24 hrs by DCFH2 based green fluorescence assay; assay type: functional, cell-based
[11] = tested on: PC-3; assay: Induction of apoptosis in human PC-3 cells assessed as fold increase in BAX/BCL-2 ratio at 50 uM measured after 72 hrs relative to control; assay type: functional
[12] = tested on: WiDr; assay: Induction of oxidative stress in human WiDr cells assessed as increase in superoxide anion level at 15 uM incubated for 24 hrs by DHE based red fluorescence assay; assay type: functional, cell-based
[13] = tested on: WiDr; assay: Induction of cell cycle arrest in human WiDr cells assessed as pre-G0/G1 phase at 40 uM measured after 72 hrs by propidium iodide based assay relative to control; assay type: functional
[14] = tested on: WiDr; assay: Induction of oxidative stress in human WiDr cells assessed as increase in peroxide level at IC50 concentration incubated for 24 hrs by DCFH2 based green fluorescence assay; assay type: functional, cell-based
[15] = tested on: PC-3; assay: Induction of mitochondrial membrane potential loss in human PC-3 cells at IC50 concentration after 72 hrs by flow cytometry; assay type: functional, cell-based
[16] = tested on: PC-3; assay: Induction of mitochondrial membrane potential loss in human PC-3 cells at 50 uM after 72 hrs by flow cytometry; assay type: functional
[17] = tested on: WiDr; assay: Antiproliferative activity aginst human WiDr cells assessed as reduction in cell viability at IC50 concentration measured after 72 hrs by annexin -V and propidium iodide staining based flow cytometry analysis; assay type: functional
[18] = tested on: PC-3; assay: Induction of oxidative stress in human PC-3 cells assessed as increase in superoxide anion level at 15 uM incubated for 24 hrs by DHE based red fluorescence assay; assay type: functional, cell-based
[19] = tested on: PC-3; assay: Antiproliferative activity against human PC-3 cells assessed as reduction in cell viability at IC50 concentration measured after 72 hrs by Annexin-V and propidium iodide staining based flow cytometry analysis; assay type: functional
[20] = tested on: WiDr; assay: Induction of mitochondrial membrane potential loss in human WiDr cells at IC50 concentration after 72 hrs by flow cytometry; assay type: functional, cell-based
[21] = tested on: PC-3; assay: Induction of apoptosis in human PC-3 cells assessed as apoptotic cells at 50 uM measured after 72 hrs by annexin-V and propidium iodide staining based flow cytometry analysis; assay type: functional
[22] = tested on: PC-3; assay: Effect on GSH expression in human PC-3 cells incubated for 24 hrs by mercury orange based red fluorescence assay; assay type: functional, cell-based
[23] = tested on: PC-3; assay: Induction of oxidative stress in human PC-3 cells assessed as increase in peroxide level at IC50 concentration incubated for 24 hrs by DCFH2 based green fluorescence assay; assay type: functional, cell-based
[24] = tested on: WiDr; assay: Induction of oxidative stress in human WiDr cells assessed as increase in peroxide level at 15 uM incubated for 24 hrs by DCFH2 based green fluorescence assay; assay type: functional, cell-based
[25] = tested on: WiDr; assay: Effect on GSH expression in human WiDr cells incubated for 24 hrs by mercury orange based red fluorescence assay; assay type: functional, cell-based
[26] = tested on: PC-3; assay: Induction of oxidative stress in human PC-3 cells assessed as increase in superoxide anion level at IC50 concentration incubated for 24 hrs by DHE based red fluorescence assay; assay type: functional, cell-based
[27] = tested on: WiDr; assay: Induction of apoptosis in human WiDr cells assessed as late apoptotic/necrotic cells at 50 uM measured after 72 hrs by annexin-V and propidium iodide staining based flow cytometry analysis; assay type: functional, cell-based
[28] = tested on: PC-3; assay: Induction of apoptosis in human PC-3 cells assessed as necrotic cells at IC50 concentration measured after 72 hrs by annexin-V and propidium iodide staining based flow cytometry analysis; assay type: functional
[29] = tested on: WiDr; assay: Induction of cell cycle arrest in human WiDr cells assessed as G2/M phase at 40 uM measured after 72 hrs by propidium iodide based assay relative to control; assay type: functional
[30] = tested on: PC-3; assay: Induction of apoptosis in human PC-3 cells assessed as increase in BAX/BCL-2 ratio at IC50 concentration measured after 72 hrs; assay type: functional, cell-based
[31] = tested on: PC-3; assay: Induction of apoptosis in human PC-3 cells assessed as late apoptotic/necrotic cells at 50 uM measured after 72 hrs by annexin-V and propidium iodide staining based flow cytometry analysis; assay type: functional
[32] = tested on: WiDr; assay: Induction of apoptosis in human WiDr cells assessed as increase in BAX/BCL-2 ratio at IC50 concentration measured after 72 hrs; assay type: functional, cell-based
[33] = tested on: PC-3; assay: Induction of cell cycle arrest in human PC-3 cells assessed as G0/G1 phase measured after 72 hrs by cell cycle analysis relative to control; assay type: functional

SMILES: CC(C)CCC[C@@H](C)[C@H]1CC[C@H]2[C@@H]3C/C(=N\O)C4C[C@@H](O)CC[C@]4(C)[C@H]3CC[C@]12C (some centres not stated)
- IC50 [1]: 49.8 µM

SMILES: C[C@]12CCCC=C1CC[C@@H]1[C@@H]2CC[C@]2(C)C(=O)CC[C@@H]12
- IC50 [2]: 17.7 µM
- IC50 [3]: 21.5 µM
- IC50 [4]: 28 µM
- IC50 [5]: 21.5 µM

SMILES: C[C@]12CC[C@H]3O[C@H]3[C@@H]1CC[C@@H]1[C@@H]2CC[C@]2(C)C(=O)CC[C@@H]12
- IC50 [2]: 32.6 µM
- IC50 [3]: 46.8 µM
- IC50 [4]: 60.9 µM

SMILES: C[C@]12CC[C@H]3[C@@H](CC[C@@]45O[C@@H]4CCC[C@]35C)[C@@H]1CC/C2=N\O
- IC50 [2]: 52.7 µM
- IC50 [4]: 53.4 µM

SMILES: CC(C)C(=O)Nc1ccc([N+](=O)[O-])c(C(F)(F)F)c1 [FLUTAMIDE]
- IC50 [3]: 58 µM
- IC50 [5]: > 500 µM

SMILES: C[C@]12CCC=C[C@@H]1CC[C@@H]1[C@@H]2CC[C@]2(C)C(=O)CC[C@@H]12
- IC50 [2]: 15 µM
- IC50 [3]: 23.1 µM

SMILES: CCc1c2c(nc3ccc(OC(=O)N4CCC(N5CCCCC5)CC4)cc13)-c1cc3c(c(=O)n1C2)COC(=O)[C@]3(O)CC [IRINOTECAN]
- IC50 [4]: 13.9 µM

SMILES: O=c1[nH]cc(F)c(=O)[nH]1 [FLUOROURACIL]
- IC50 [2]: 19 µM
- IC50 [4]: 10.5 µM

SMILES: C[C@]12CCCC=C1CC[C@@H]1[C@@H]2CC[C@]2(C)/C(=N/O)CC[C@@H]12
- IC50 [6]: > 75 µM
- Activity [7]: Active
- Activity [8]: Active
- Activity [9]: 6.25%
- IC50 [2]: 18.2 µM
- Activity [10]: Active
- fold change (FC) [11]: 1.51
- Activity [12]: Active
- Activity [13]: Active
- Activity [14]: Active
- Activity [15]: Active
- fold change (FC) [16]: 3.66
- Activity [17]: 38.67%
- Activity [18]: Active
- Activity [19]: 75.46%
- Activity [20]: Active
- IC50 [3]: 14.5 µM
- Activity [21]: 32.37%
- IC50 [4]: 16.1 µM
- Activity [22]: inactive
- Activity [23]: Active
- Activity [24]: Active
- Activity [25]: inactive
- IC50 [5]: 19.2 µM
- Activity [26]: Active
- Activity [27]: Active

SMILES: C[C@]12CCC=C[C@@H]1CC[C@@H]1[C@@H]2CC[C@]2(C)/C(=N/O)CC[C@@H]12
- Activity [28]: 49.94%
- IC50 [6]: 31.7 µM
- Activity [7]: Active
- Activity [8]: Active
- Activity [29]: Active
- IC50 [2]: 23.9 µM
- Activity [10]: Active
- Activity [12]: Active
- Activity [30]: Active
- Activity [13]: Active
- Activity [14]: Active
- Activity [15]: Active
- Activity [31]: 18.01%
- Activity [32]: Active
- Activity [17]: 47.67%
- Activity [18]: Active
- Activity [19]: 72.74%
- Activity [20]: Active
- IC50 [3]: 13.8 µM
- IC50 [4]: 9.1 µM
- Activity [22]: inactive
- Activity [23]: Active
- Activity [24]: Active
- Activity [25]: inactive
- IC50 [5]: 18.6 µM
- Activity [33]: 9.66%
- Activity [26]: Active

SMILES: COc1cc([C@@H]2c3cc4c(cc3[C@@H](O[C@@H]3O[C@@H]5CO[C@@H](C)O[C@H]5[C@H](O)[C@H]3O)[C@H]3COC(=O)[C@H]23)OCO4)cc(OC)c1O [ETOPOSIDE]
- IC50 [5]: 230 µM

SMILES: C[C@]12CC[C@H]3[C@@H](CC[C@@]45O[C@@H]4CCC[C@]35C)[C@@H]1CCC2=O
- IC50 [2]: 42.4 µM
- IC50 [3]: 62.1 µM
- IC50 [4]: 59.1 µM

SMILES: C[C@]12CC[C@H]3O[C@H]3[C@@H]1CC[C@@H]1[C@@H]2CC[C@]2(C)/C(=N/O)CC[C@@H]12
- IC50 [2]: 64.3 µM
- IC50 [3]: 77.9 µM
- IC50 [4]: 75 µM
